# Test results taken from patent publication US10093712B2, “Immunostimulatory compositions and uses thereof” (Susavion Biosciences, Inc., priority 2004, dated 2018).
# Like-named read-outs stand apart in the source and are kept apart here. Where no end group is shown, it is not given here.
# Key:
# [1] = test system: recurring, advanced cancer; conditions: for quality of life: canine cancer patients, subjective; for tumor load / size of the primary tumor: several patients / some cases
# Procedure: Owners of dogs that were used to obtain preliminary data were required to sign informed consent and agreement to necropsy forms. Dogs with histologically or cytologically confirmed cancer were given the polypeptide mimetic at doses of 100 to 1,500µg by weekly perfusion into the blood or subcutaneously 3 times per week. The effective dose of the glycopeptide used by Schneider et al. (2003) was 0.4 ng/g body weight given every other day. On this basis, a minimal weekly dose should be 1.4 ng/g body weight. For a large animal (80 lb or 36 kg dog), the starting, minimal-effective, weekly dose of the synthetic mimetic polypeptide would therefore be 50µg or 6.8 nmoles. For initial studies, the mimetic polypeptide (FIG. 4) was administered at a 20-fold higher dose.
# [2] = test system: adherent macrophages or neutrophils from canine peripheral blood; assay: Phagocytosis of fluorescent polystyrene beads; assay type: cell-based; conditions: 3.4 nM (25 ng/ml)
# Procedure: (§1) Phagocytosis: Phagocytosis was measured by the uptake of fluorescently-labeled bacterial cells (Molecular Probes, Inc.) or fluorescent polystyrene beads (Polyscience, Inc). Phagocytosis can be quantitated by quenching extracellular (unphagocytized) bacterial cells by addition of the dye trypan blue to the suspension and measuring the remaining (intracellular) fluorescence (Wan et al., 1993).
# Phagocytosis of polystyrene beads: Peripheral blood from the canines was added to confocal dishes and incubated over night to allow macrophage adherence. The cells were washed away with PBS, HBSS, or RPMI. Only adherent macrophages or neutrophils remained on the glass surface and were left to incubate in the above mentioned buffers. Polypeptide was then added at 3.4 nM (25 ng/ml) for a 5-hour incubation. At this point, beads were added for a 10-minute incubation. All incubations were done in 37° C. with 5% CO2.
# [3] = test system: canine peripheral blood macrophages; assay: Phagocytosis of fluorescently labeled bacterial cells, trypan blue quench, microscopy; assay type: cell-based; conditions: for phagocytosis of bacterial cells: then bacterial cells 10 minutes
# Procedure: FIG. 9. Microscopic analysis of phagocytosis of fluorescently labeled bacterial cells by adherent cells from canine peripheral blood samples. […] The sample was treated 15 h with 5 nM branched peptide mimetic and then incubated with fluorescently-labeled bacterial cells for 10 min. Fluorescence of bacterial cells that remained extracellular was quenched with trypan blue. […] The samples were not treated with the peptide mimetic, and most of the cells, as in (D) were not fluorescent. A very low level of fluorescence, evidence of low phagocytic activity, was occasionally seen, as shown in (C). Gain was set to maximize detection of fluorescence. Such control samples show the highest level of phagocytosis of bacterial that we have observed. In many experiments, control cells show no fluorescence.
# as §1
# In one experiment, canine peripheral blood macrophages were treated for 15 hours with 5 nM branched polypeptide (FIG. 4), and then incubated with bacterial cells for 10 minutes, followed by microscopic analysis. Fluorescence of bacterial cells that remained extracellular was quenched with trypan blue. […] (See FIG. 9)
# In another experiment, adherent canine peripheral blood cells were treated for 5 hours with 10 nM branched polypeptide (FIG. 4) and then washed. Fluorescent bacterial cells were added, and after 10 minutes, trypan blue was added to quench extracellular bacterial cells. Cells were examined by light microscopy and then by fluorescent microscopy. Contrast in the fluorescent images was maximized to detect any fluorescence in control samples. […] Treated and control samples were from the same dog.
# [4] = pH 7.4
# Source text: The product was dried and then dissolved in sterile phosphate buffered saline, pH 7.4.
# [5] = test system: adherent peripheral blood cells; assay: Oxidative burst of adherent peripheral blood cells, change in absorbance of cytochrome c after PMA; assay type: cell-based
# Procedure: FIG. 7. Response of adherent peripheral blood cells to mimetic peptides. Reduction of cytochrome c by superoxide anion radical is indicated by an increase in absorbance (OD), whereas a loss of absorbance indicates destruction of the cytochrome. (A) Total adherent cells from 300 μl of blood were assayed. Samples 1 and 2 contained 5 nM and 2.5 nM branched mimetic peptide, respectively. Samples 3 and 4 contained 5 nM and 2.5 nM linear mimetic peptide, respectively. Sample 5 contained 50 ng/ml lipopolysaccharide (weight equivalent to 6 nM peptide). Sample 6, untreated control cells. (B) Adherent cells were scraped from the surface and 1×10^5 cells were placed in each well. The assay was performed as in (A). Samples 1 and 2 contained 10 nM and 5 nM mimetic peptide, respectively. Samples 3 and 4 contained 10 nM and 5 nM linear peptide, respectively. Sample 5 contained 50 ng/ml lipopolysaccharide. Sample 6, untreated control cells.
# (§2) Oxidative burst: Peripheral blood samples were removed from animals and 300 μl added to wells of a 96-well microtiter plate and incubated overnight at 38° C. in a standard CO2-incubator. The nonadherent cells, including erythrocytes, and serum were removed and centrifuged to pellet cells and obtain cell-free serum. RPMI 1640 medium containing 2 to 10% serum from the same animal were added to each well and incubation of the culture is continued for various periods of time. The polypeptide mimetic was then added to a concentration of 1 to 10 nM and incubation continued for 3 h.
# One type of assay of cellular activity measures the response of adherent cells to the polypeptide mimetic by the change in absorbance of cytochrome c (Johnston et al., 1978; Pick and Mizel, 1981). Phorbol 12-myristate 13-acetate (PMA) was added to 140 nM and then cytochrome c was added to 15 μM. Change in absorbance was monitored continuously at 550 nm over 20 min. With 300 μl in each well, reduction of cytochrome c was calculated as: Δnanomoles=absorbance at 550 nm×100/2.1 (Pick and Mizel, 1981). Positive control samples were run with lipopolysaccharide, a known stimulator of macrophage activity. Negative controls lack stimulant.
# The oxidative burst upon addition of PMA involves production of the superoxide anion radical. The superoxide anion radical is a strong reducing agent and reduces cytochrome c, which is detected by an increase in absorbance of the sample. Additionally, these cells produce the nitric oxide radical, which reacts with superoxide anion radical at diffusion-limited rates to produce the strong oxidant, peroxynitrite anion (Ischiropoulos et al., 1992). These strong oxidants apparently cause loss of absorbance of the cytochrome.
# Without treatment with the polypeptide, again no change in absorbance of the cytochrome was detected.
# [6] = test system: peripheral blood adherent cells; assay: Pyrogallol oxidation initiated by superoxide anion radical from peripheral blood adherent cells; assay type: cell-based; conditions: 3.4, 1.7 or 0.7 nM versus 50 ng/ml lipopolysaccharide, FIG. 8
# Procedure: FIG. 8. Assay of pyrogallol oxidation initiated by superoxide anion radical generation by peripheral blood adherent cells treated with stimulants. Samples 1, 2, and 3, contained 3.4, 1.7 or 0.7 nM (25, 12.5 or 5 ng/ml) of the branched mimetic, respectively. Sample 4 contained 50 ng/ml lipopolysaccharide. Sample 5, untreated control cells.
# as §2
# The response of cells to the polypeptide was also assayed by oxidation of pyrogallol (Marldund and Marklund, 1974) in a reaction initiated by superoxide anion radical (FIG. 8).
substance,measurement,setting,value
"[(VQATQSNQHTPRGGGS)2K]2K.beta.AC (not fully specified (C-terminus); printed as [(VQATQSNQHTPRGGGS)2K]2K.beta.AC; also: four-branch lysine core [(seq)2K]2K, betaAla-Cys on core) [branched polypeptide mimetic]",quality of life,[1]; listed as branched peptide mimetic,dramatic improvement in quality of life
same,quality of life,[1]; listed as polypeptide,remarkable extension and improvement in the quality of life
same,quality of life,[1]; listed as polypeptide mimetic,dramatically enhanced
same,survival on the treatment,"[1]; several animals, advanced cancer",≥ 6 months
same,extension of life,[1]; several canine patients with advanced cancer,extension of life beyond what would be normally expected
same,behavior,[1]; several patients,restored to pre-disease activities
same,tumor load / size of the primary tumor,[1]; listed as polypeptide,reduction in size of the primary tumor
same,tumor load / size of the primary tumor,[1]; listed as polypeptide mimetic,reduction in tumor load was detected
same,detachment of neutrophils from the surface,[2],induced detachment of neutrophils from the surface
same,phagocytosis of polystyrene beads,"[2]; 5-hour incubation, 10 to 30 minutes after bead addition",presence of the beads within cells
same,phagocytosis of bacterial cells,[3]; 5 nM for 15 hours,dramatically increased phagocytosis
same,attachment of neutrophils,[3]; 10 nM for 5 hours,more of the smaller neutrophils become attached
same,phagocytosis of bacterial cells,[3]; 10 nM for 5 hours,dramatically increased phagocytosis
same,stability of the product,[4],at least 3 months
same,oxidative burst response compared with linear polypeptide,[5]; FIG. 7,stronger response than the linear polypeptide
same,change in absorbance of cytochrome c,"[5]; higher concentrations of polypeptide (5 to 10 nM), FIG. 7A",rapid loss of absorbance
same,change in absorbance of cytochrome c,"[5]; low concentrations of mimetic polypeptide (1 nM), PMA 140 nM, cytochrome c 15 μM, 550 nm",increase in absorbance of cytochrome c
same,rate of reduction of cytochrome c,"[5]; lowered cell number (1×10^5 cells per well), FIG. 7B",correlated with the amount of polypeptide mimetic added
same,oxidative burst response compared with lipopolysaccharide,[5]; on an equal weight basis,even stronger than to lipopolysaccharide
same,"oxidation of pyrogallol, activity as stimulant",[6],most active stimulant
lipopolysaccharide [reference compound],change in absorbance of cytochrome c,[5]; lipopolysaccharide positive control,increase in absorbance of cytochrome c
